Experiment [1] deals with Syk (356-635 amino acids) catalytic domain (Homo sapiens (Human), UniProt P43405). The experiment can be described thus: Inhibition of enzymatic Syk kinase activity (radiometric). It counts as biochemical. As to conditions: read-out: IC50 Syk. In short, it runs like this: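 Radiometric filter-binding format: 32P transfer from γ-32P-ATP onto pG4T, scintillation-counted after acid washes of P81 paper. Syk kinase domain (356-635), 0.035–7.5 ng per reaction, was exposed to compound for 30 minutes at room temperature before a 10-minute, 30° C. reaction with ATP (100 μM stock). Inhibition derived from counts with versus without compound.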

In another experiment the target is JAK2 (Homo sapiens (Human), UniProt O60674). The experiment can be described thus: Inhibition of enzymatic JAK2 kinase activity (TR-FRET). It is filed as biochemical. As to conditions: read-out: IC50 JAK. An outline of the steps:
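TR-FRET read-out (Eu antibody donor, Ulight poly Glu-Tyr acceptor, 665/615 nm ratio) after a 60 min RT kinase reaction with ATP, begun following 30 min compound–enzyme preincubation. Stopped by EDTA; inhibition expressed as 100 minus % activity of positive control.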
For orientation: Time-resolved FRET reads energy transfer from a long-lived donor to a nearby acceptor.

The next experiment deals with RBL2H3 cells. The experiment can be described thus: Degranulation assay: β-hexosaminidase release during immune complex mediated degranulation. It counts as cell-based, rat. The conditions noted are these: Rattus norvegicus, RBL-2H3; for inhibition at 1 µM: read-out: Degranulation % inhibition at 1 μM; for pEC50: read-out: Degranulation EC50. As to the method: The objective of this assay was to examine by Fluorescence method the effect of compounds on β-hexosaminidase release during immune complex mediated degranulation in RBL2H3 cells. Compounds were tested for their ability to inhibit the ability of this immune complex to mediate β-hexosaminidase release, in an enzyme assay with […] as substrate. […] Emission 460 nm). [table] [table] RBL2H3 cells were maintained in MEM complete media containing 10% FBS at 70%-80% confluence in a mammalian cell culture CO2 incubator with 5% CO2 at 37° C. 2×10^5 cells/well were plated in 1 mL of complete media and incubated for 5 hours for cell attachment. Complete media was replaced with 1 mL of serum free MEM media containing 1.2 μg/mL of anti-DNP rat IgE as sensitizing agent and further incubated overnight with 5% CO2 at 37° C. […] Cells were further stimulated with 5 μg/mL of DNP-BSA for 60 minutes. Plates were centrifuged for 5 minutes at 1000 rpm and 25 μL of culture supernatant was transferred from each assay well into a 96 well black coated plate. 25 μL β-NAG substrate was added to this mixture and incubated at room temperature for 30 minutes. The reaction was terminated with 100 μL of stop solution and fluorescence was monitored. (Excitation 355 nm; Emission 460 nm) See, Sanderson, (2010), Cellular Immunology, 262(1): 28-34 and Silverman, (2006) MCB, 26(5):1826-1838, which are incorporated herein by reference. The % release of β-Hexosaminidase for the test compound was calculated using the following formula: RBL2H3 cells were maintained in MEM complete media containing 10% FBS at 70-80% confluence in a mammalian cell culture CO2 incubator with 5% CO2 at 37° C. 5×10^4 cells/well were plated in 200 μL of complete media containing 0.3 μg/mL of anti-DNP rat IgE as sensitizing agent for 24 hours at 37° C. & 5% CO2. The following day, cells were washed twice with PIPES buffer for 10 minutes at 37° C. and replenished with serum free MEM media. Cells were treated with various concentrations of test compounds (in 0.5% DMSO) for 15 minutes at 37° C. and 5% CO2. The cells were further stimulated with 0.1 μg/mL of DNP-BSA for 45 minutes. The plates were spun for 5 minutes at 2000 rpm and 25 μL of culture supernatant was then transferred from each assay well into a 96 well black coated plate. […] β-NAG substrate was added and incubated at RT for 30 minutes. After incubation with substrate, 150 μL of stop solution was added and fluorescence was monitored. (Excitation 355 nm; Emission 460 nm). See, Yamamoto, JPET, 306(3):1174-1181 (2003) and Taylor, MCB, 15(8): 4149-4157 (1995), which are herein incorporated by reference. Release of β-hexosaminidase during the degranulation process by immune complex mediated FcεRI stimulation is through the SYK pathway. The % inhibition of β-hexosaminidase release by Syk inhibitor gives information with regard to its Syk inhibition potency.

Setting [2] is: Assay Protocol B (96 well format).
[3] abbreviates: Assay Protocol A (24 well format).

This is an account of results in patent US10183944B2 (Asana Biosciences, LLC, priority 2011, dated 2019).

What is called pIC50 is −log10 of the IC50, conventionally taken in molar units. For orientation: inhibition means how much of the control response was suppressed. What is called pEC50 is the EC50 on a negative log10 scale, so that one unit is a factor of ten.

pEC50, pIC50: −log10 of the molar value. Counter-ions that a name gives are not always drawn. Like-named read-outs stand apart in the source and are kept apart here.

JAK2, sequence (O60674 808-1132): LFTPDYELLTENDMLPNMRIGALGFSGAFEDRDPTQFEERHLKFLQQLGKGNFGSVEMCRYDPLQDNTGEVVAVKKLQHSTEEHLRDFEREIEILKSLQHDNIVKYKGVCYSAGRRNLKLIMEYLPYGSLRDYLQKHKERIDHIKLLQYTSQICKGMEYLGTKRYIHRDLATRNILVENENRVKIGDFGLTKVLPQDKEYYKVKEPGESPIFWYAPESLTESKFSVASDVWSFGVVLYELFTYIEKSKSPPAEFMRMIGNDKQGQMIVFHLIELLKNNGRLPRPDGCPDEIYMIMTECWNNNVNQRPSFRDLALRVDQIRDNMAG

Take `N#CCC(=O)N1CCN(c2ccc(Nc3nc(N4CCCCCC4)nc4cn[nH]c(=O)c34)cc2)CC1` [Example 215, 3-(4-(4-((2-(azepan-1-yl)-5-oxo-5,6-dihydropyrimido[4,5-d]pyridazin-4-yl)amino)phenyl)piperazin-1-yl)-3-oxopropanenitrile]: the pIC50 (in experiment [1]; on JAK2) was greater than 8.00 in each case. Further, the inhibition at 1 µM in the experiment on RBL2H3 cells (setting [2]) amounted to 96%. Further, the pEC50 with RBL2H3 cells (setting [2]) is 7.92.

Take `O=c1[nH]ncc2nc(N3CCCC3)nc(Nc3ccc(CN4CCNCC4)cc3)c12` [Example 48, 4-((4-(piperazin-1-ylmethyl)phenyl)amino)-2-(pyrrolidin-1-yl)pyrimido[4,5-d]pyridazin-5(6H)-one hydrochloride]: the pIC50 (in experiment [1]; at JAK2) was greater than 7.00 each time. Also, the inhibition at 1 µM with RBL2H3 cells (setting [2]) was found to be 100%.

Consider `N#CCC1CCN(c2nc(Nc3ccc(N(CCO)CCO)cc3)c3c(=O)[nH]ncc3n2)CC1` [Example 307, 2-(1-(4-((4-(bis(2-hydroxyethyl)amino)phenyl)amino)-5-oxo-5,6-dihydropyrimido[4,5-d]pyridazin-2-yl)piperidin-4-yl)acetonitrile], for which the pIC50 (in experiment [1]; on JAK2) was greater than 8.00 each time. Moreover, the inhibition at 1 µM in the experiment on RBL2H3 cells (setting [2]) was determined as 14%. In addition, the negative logarithm of the EC50 (pEC50) in the experiment on RBL2H3 cells (setting [2]) was 6.51.

Consider `COCCN1CCN(c2ccc(Nc3nc(N4CCC(CC#N)CC4)nc4cn[nH]c(=O)c34)cc2)CC1` [Example 256, 2-(1-(4-((4-(4-(2-methoxyethyl)piperazin-1-yl)phenyl)amino)-5-oxo-5,6-dihydropyrimido[4,5-d]pyridazin-2-yl)piperidin-4-yl)acetonitrile], for which, in experiment [1], the pIC50 is greater than 8.00. At JAK2, the pIC50 is greater than 7.30. Moreover, in the experiment on RBL2H3 cells (setting [2]), the inhibition at 1 µM was 73% and the negative-log EC50 (pEC50) was 7.48.

In the case of `O=c1[nH]ncc2nc(N3CCCCCC3)nc(Nc3ccc(N4CCOCC4)cc3)c12` [Example 60, 2-(azepan-1-yl)-4-((4-morpholinophenyl)amino)pyrimido[4,5-d]pyridazin-5(6H)-one], the pIC50 (in experiment [1]; at JAK2) was greater than 8.00 in each case. Also, in the experiment on RBL2H3 cells (setting [2]), the inhibition at 1 µM came to 100%. Besides, the pEC50 in the experiment with RBL2H3 cells (setting [2]) was 7.74.

In the case of `NCC(=O)N1CCN(c2ccc(Nc3nc(-c4ccccc4)nc4cn[nH]c(=O)c34)cc2)CC1` [Example 11, 4-(4-(4-(2-aminoacetyl)piperazin-1-yl)phenylamino)-2-phenylpyrimido[4,5-d]pyridazin-5(6H)-one hydrochloride], the pIC50 in experiment [1] (hydrochloride) is greater than 7.30; at JAK2, greater than 7.00. Besides, the inhibition at 1 µM in the experiment with RBL2H3 cells (setting [3]) came out at 100%.

Regarding `O=C(O)C1CC12CCN(c1nc(Nc3ccc(CN4CCNCC4)cc3)c3c(=O)[nH]ncc3n1)CC2` (stereo not drawn) [Example 25, 6-(5-oxo-4-(4-(piperazin-1-ylmethyl)phenylamino)-5,6-dihydropyrimido[4,5-d]pyridazin-2-yl)-6-azaspiro[2.5]octane-1-carboxylic acid hydrochloride], the pIC50 in experiment [1] is greater than 7.30; on JAK2, greater than 7.00. Further, the inhibition at 1 µM in the experiment on RBL2H3 cells (setting [3]) was 79%.

Turning to `O=C(CC1CCN(c2ccc(Nc3nc(N4CCCCCC4)nc4cn[nH]c(=O)c34)cc2)CC1)N(CCO)CCO` [Example 118, 2-(1-(4-((2-(azepan-1-yl)-5-oxo-5,6-dihydropyrimido[4,5-d]pyridazin-4-yl)amino)phenyl)piperidin-4-yl)-N,N-bis(2-hydroxyethyl)acetamide], in experiment [1], the pIC50 was greater than 7.30. Besides, the negative logarithm of the IC50 (pIC50) at JAK2 is greater than 8.00. In the experiment on RBL2H3 cells (setting [2]), the inhibition at 1 µM is 87% and the negative logarithm of the EC50 (pEC50) was 6.82.

On to `CN(C)CCN1CCN(c2ccc(Nc3nc(N4CCC(CC#N)CC4)nc4cn[nH]c(=O)c34)cc2)CC1` [Example 268, 2-(1-(4-((4-(4-(2-(dimethylamino)ethyl)piperazin-1-yl)phenyl)amino)-5-oxo-5,6-dihydropyrimido[4,5-d]pyridazin-2-yl)piperidin-4-yl)acetonitrile], for which the negative-log IC50 (pIC50) in experiment [1] was greater than 8.00; on JAK2, greater than 7.30. Further, the inhibition at 1 µM in the experiment on RBL2H3 cells (setting [2]) stood at 93%. Also, the pEC50 in the experiment with RBL2H3 cells (setting [2]) is 7.70.
